# Reference: US12167990B2, “Vitamin composition” (SOCIÉTË DES PRODUITS NESTLË S.A., priority 2016, dated 2024)
# Assay: Storage test at 60° C. and 68% relative humidity, vitamin A analysed by UPLC
# Type: physicochemical
# Conditions: storage at 60° C. and 68% RH; 0.825 wt. % vitamin A palmitate in oil; FIGS. 1 to 7
# Method: Palm oil (SUNIA), and vitamin A palmitate (Vitamin A Palmitate 1.7 MIU/g-DSM) were heated in an oven at 60°. Vitamin A palmitate was not held above 60° C. for longer than 5 minutes to avoid possible degradation. The oil was mixed with vitamin A palmitate in a 0.5 liter Schott bottle and then stirred for 10 minutes in a 50° C. water bath. Initial vitamin A palmitate content was 0.825% in oil (a vitamin A palmitate content of 0.165 wt. % in powdered bran). The total amount of lipid was 100 g. A quantity of 10 g of lipid containing vitamin A palmitate was then mixed with 40 g of powdered rice bran with or without phytic acid (Herba Ingredients) in a mortar during 5 minutes. […]
# A quantity of 10 g of lipid containing 0.825 wt. % of vitamin A palmitate was mixed with 40 g of wheat bran in a mortar during 5 minutes. […]
# A quantity of 10 g of lipid containing 0.825 wt. % of vitamin A palmitate was mixed with 40 g of maltodextrin DE21 in a mortar during 5 minutes. […]
# A quantity of 10 g of lipid containing 0.825 wt. % of vitamin A palmitate and 1.87 g of iron pyrophosphate powder were mixed with 38.13 g of powdered rice bran (Herba Ingredients) in a mortar during 5 minutes. […]
# For the storage tests, the crystallizing dishes were transferred into a climatic chamber regulated at 60° C. and 68% relative humidity, before being analyzed. […]
smiles,measurement,value
"CCCCCCCCCCCCCCCC(=O)OC/C=C(C)/C=C/C=C(C)/C=C/C1=C(C)CCCC1(C)C [vitamin A palmitate, retinyl palmitate]",vitamin A stability (degradation curves),very sensitive to temperature and degrades fast
